Test results taken from ChEMBL document CHEMBL4422689, “Discovery of 4'-OH-flurbiprofen Mannich base derivatives as potential Alzheimer's disease treatment with multiple inhibitory activities” (Bioorg Med Chem, 2019).
The source made the active and inactive calls. No cut-off for these calls is given here.

Assays:
[1] = Inhibition of Cu2+-induced human amyloid beta (1 to 42) aggregation at 25 uM after 24 hrs by thioflavin T-based fluorometric assay relative to control
[2] = Antioxidant activity assessed as trolox equivalents of AAPH radical scavenging activity at 1 to 10 uM preincubated for 15 mins followed by AAPH addition measured every min for 90 mins by ORAC-FL assay; type: functional
[3] = molecular target: Amyloid-beta precursor protein (Homo sapiens) (UniProt P05067); test: Inhibition of HFIP-pretreated human amyloid beta (1 to 42) self-induced aggregation at 25 uM measured after 24 hrs by thioflavin-T fluorescence assay relative to control
Amyloid-beta precursor protein (Homo sapiens), sequence (P05067 whole entry): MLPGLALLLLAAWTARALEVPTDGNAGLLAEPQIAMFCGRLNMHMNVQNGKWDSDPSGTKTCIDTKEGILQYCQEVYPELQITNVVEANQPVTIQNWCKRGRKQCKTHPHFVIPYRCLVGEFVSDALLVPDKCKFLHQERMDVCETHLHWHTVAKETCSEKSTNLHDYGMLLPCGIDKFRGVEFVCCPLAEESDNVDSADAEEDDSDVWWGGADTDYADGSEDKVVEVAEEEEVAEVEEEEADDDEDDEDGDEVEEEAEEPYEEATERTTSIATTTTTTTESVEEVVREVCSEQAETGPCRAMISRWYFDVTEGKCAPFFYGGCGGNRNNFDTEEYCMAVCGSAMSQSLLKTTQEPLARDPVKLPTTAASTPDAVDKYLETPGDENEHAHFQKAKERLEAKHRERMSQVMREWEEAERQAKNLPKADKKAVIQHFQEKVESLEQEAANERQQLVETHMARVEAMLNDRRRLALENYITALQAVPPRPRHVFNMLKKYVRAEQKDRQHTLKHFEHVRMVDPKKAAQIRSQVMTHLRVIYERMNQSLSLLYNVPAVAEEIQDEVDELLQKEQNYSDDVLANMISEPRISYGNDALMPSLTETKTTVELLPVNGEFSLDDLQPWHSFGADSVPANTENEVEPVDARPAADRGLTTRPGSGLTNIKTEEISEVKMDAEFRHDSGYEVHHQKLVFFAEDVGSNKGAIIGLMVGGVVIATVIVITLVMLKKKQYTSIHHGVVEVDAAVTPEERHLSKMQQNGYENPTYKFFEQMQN

[4] = molecular target: Acetylcholinesterase (Electrophorus electricus) (UniProt O42275); test: Inhibition of Electrophorus electricus AChE at 50 uM using acetylthiocholine iodide as substrate measured after 15 mins by Ellman's method relative to control
Acetylcholinesterase (Electrophorus electricus), sequence (O42275 24-633 limits assumed): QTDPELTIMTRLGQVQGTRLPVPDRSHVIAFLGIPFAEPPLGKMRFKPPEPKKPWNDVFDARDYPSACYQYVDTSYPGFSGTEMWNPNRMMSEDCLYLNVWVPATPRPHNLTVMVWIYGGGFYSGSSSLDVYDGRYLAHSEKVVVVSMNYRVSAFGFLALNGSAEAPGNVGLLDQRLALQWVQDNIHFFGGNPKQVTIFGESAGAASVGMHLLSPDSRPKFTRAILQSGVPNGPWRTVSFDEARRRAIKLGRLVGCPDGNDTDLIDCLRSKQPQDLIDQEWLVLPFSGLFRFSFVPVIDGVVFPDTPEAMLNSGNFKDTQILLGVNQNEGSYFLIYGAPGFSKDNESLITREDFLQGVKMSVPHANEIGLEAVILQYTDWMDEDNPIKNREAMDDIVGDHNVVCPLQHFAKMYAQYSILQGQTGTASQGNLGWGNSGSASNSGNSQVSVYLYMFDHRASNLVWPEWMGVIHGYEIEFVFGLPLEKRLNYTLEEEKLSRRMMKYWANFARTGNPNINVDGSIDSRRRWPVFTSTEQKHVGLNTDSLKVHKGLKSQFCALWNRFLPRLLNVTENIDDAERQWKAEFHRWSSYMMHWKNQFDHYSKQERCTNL

[5] = molecular target: Butyrylcholinesterase (BuChE) (Rattus norvegicus, UniProt Q9JKC1); test: (§1) Inhibition of rat serum BuChE at 25 uM using butyrylthiocholine iodide as substrate after 15 mins by Ellman's method relative to control; conditions: rat serum, probe butyrylthiocholine iodide
Butyrylcholinesterase (BuChE), sequence (Q9JKC1 whole entry): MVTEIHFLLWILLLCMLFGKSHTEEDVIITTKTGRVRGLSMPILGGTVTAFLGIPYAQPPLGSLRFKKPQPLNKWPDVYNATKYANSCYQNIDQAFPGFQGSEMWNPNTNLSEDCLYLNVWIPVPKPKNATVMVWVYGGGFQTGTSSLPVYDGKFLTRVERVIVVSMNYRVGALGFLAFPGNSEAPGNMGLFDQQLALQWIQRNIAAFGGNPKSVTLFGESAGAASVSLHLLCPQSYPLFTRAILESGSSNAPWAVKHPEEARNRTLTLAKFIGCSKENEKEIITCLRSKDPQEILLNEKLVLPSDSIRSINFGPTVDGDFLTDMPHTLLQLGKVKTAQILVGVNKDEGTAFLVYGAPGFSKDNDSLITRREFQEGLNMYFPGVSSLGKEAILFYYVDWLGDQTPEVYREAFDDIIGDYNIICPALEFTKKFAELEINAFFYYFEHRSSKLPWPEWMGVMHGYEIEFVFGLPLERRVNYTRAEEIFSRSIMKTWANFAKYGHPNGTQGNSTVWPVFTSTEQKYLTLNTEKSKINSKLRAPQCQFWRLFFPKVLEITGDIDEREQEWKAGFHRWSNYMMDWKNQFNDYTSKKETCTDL

Butyrylcholinesterase = Butyrylcholinesterase (Rattus norvegicus, UniProt Q9JKC1); test: as §1; conditions: 0.25 h, 25 µM
Butyrylcholinesterase, sequence (Q9JKC1 whole entry): as above

[6] = Permeability of the compound in pH 7.4 PBS/EtOH at 100 ug/ml after 18 hrs by PAMPA-BBB assay
BV-2 [7] = test: Inhibition of LPS-induced nitric oxide production in mouse BV2 cells at 2.5 uM pretreated for 30 mins followed by LPS-stimulation and measured after 24 hrs by Griess assay relative to control; type: functional
BV-2 [8] = test: Inhibition of LPS-induced nitric oxide production in mouse BV2 cells at 10 uM pretreated for 30 mins followed by LPS-stimulation and measured after 24 hrs by Griess assay relative to control; type: functional
BV-2 [9] = test: Inhibition of LPS-induced TNFalpha production in mouse BV2 cells at 2.5 uM pretreated for 30 mins followed by LPS-stimulation and measured after 24 hrs by ELISA relative to control; type: functional
BV-2 [10] = test: Inhibition of LPS-induced TNFalpha production in mouse BV2 cells at 10 uM pretreated for 30 mins followed by LPS-stimulation and measured after 24 hrs by ELISA relative to control; type: functional
[11] = Metal chelating activity of the compound assessed as formation of Al3+-compound complex by measuring red shift in maximum absorption at 37.5 uM after 30 mins by UV-vis absorption spectra analysis
[12] = Metal chelating activity of the compound assessed as formation of Cu2+-compound complex by measuring red shift in maximum absorption at 37.5 uM after 30 mins by UV-vis absorption spectra analysis
[13] = Metal chelating activity of the compound assessed as formation of Fe2+-compound complex by measuring red shift in maximum absorption at 37.5 uM after 30 mins by UV-vis absorption spectra analysis
[14] = Metal chelating activity of the compound assessed as formation of Cu2+-compound complex by measuring absorbance at 37.5 uM after 30 mins by UV-vis absorption spectra analysis
[15] = Metal chelating activity of the compound assessed as formation of Fe2+-compound complex by measuring absorbance at 37.5 uM after 30 mins by UV-vis absorption spectra analysis
[16] = Metal chelating activity of the compound assessed as formation of Zn2+-compound complex at 37.5 uM after 30 mins by UV-vis absorption spectra analysis
BV-2 [17] = test: Cytotoxicity against mouse BV2 cells assessed as effect on cell viability up to 10 uM after 24 hrs by MTT assay; type: cell-based; conditions: bv-2, 24 h
BV-2 [18] = test: Cytotoxicity against LPS-stimulated mouse BV2 cells assessed as effect on cell viability at 0.5 to 10 uM pretreated for 30 mins followed by LPS-stimulation and measured after 24 hrs by MTT assay; type: cell-based; conditions: bv-2, 24 h
BV-2 [19] = test: Cytotoxicity against LPS-stimulated mouse BV2 cells assessed as effect on cell viability at 2.5 to 10 uM pretreated for 30 mins followed by LPS-stimulation and measured after 24 hrs by MTT assay; type: cell-based; conditions: bv-2, 24 h
BV-2 [20] = test: Inhibition of LPS-induced nitric oxide production in mouse BV2 cells at 0.5 uM pretreated for 30 mins followed by LPS-stimulation and measured after 24 hrs by Griess assay relative to control; type: functional
BV-2 [21] = test: Inhibition of LPS-induced TNFalpha production in mouse BV2 cells at 0.5 uM pretreated for 30 mins followed by LPS-stimulation and measured after 24 hrs by ELISA relative to control; type: functional

For `COc1cc2c(cc1OC)C(=O)C(CC1CCN(Cc3ccccc3)CC1)C2` (stereo not drawn), the inhibition [1] was < 5%.
Molecule `COC(=O)C(C)c1ccc(-c2ccc(O)c(CN3CCN(Cc4ccccc4)CC3)c2)c(F)c1` (stereo not drawn) has an Activity [2] of 1.19 µMequiv/µM, an inhibition [3] of 28.4% and an inhibition [1] of 39.2%. It also gave an inhibition [4] of 38.3% and an inhibition at 0.25 h, 25 µM [5] of 2.86%.
In the case of `COC(=O)C(C)c1ccc(-c2ccc(O)c(CN3CCN(C)CC3)c2)c(F)c1` (stereo not drawn), the Activity [2] is reported as 2.12 µMequiv/µM, the inhibition [3] is reported as 34.1% and the inhibition [1] is reported as 16.2%. It also gave an inhibition [4] of 13.3% and an inhibition at 0.25 h, 25 µM [5] of 1.12%.
In the case of `CCN(Cc1cc(-c2ccc(C(C)C(=O)OC)cc2F)ccc1O)Cc1ccccc1OC` (stereo not drawn), the Activity [2] is reported as 2.6 µMequiv/µM, the inhibition [3] is reported as 60.5% and the inhibition [1] is reported as 42.5%. For the same molecule, the inhibition [4] was 28% and the inhibition at 0.25 h, 25 µM [5] was 5.12%.
Work on `COC(=O)C(C)c1ccc(-c2ccc(O)c(CN(C)Cc3ccccc3)c2)c(F)c1` (stereo not drawn) yielded an Activity [2] of 1.59 µMequiv/µM, an inhibition [3] of 36.7% and an inhibition [1] of 31.2%. It also gave an inhibition [4] of 35.1% and an inhibition at 0.25 h, 25 µM [5] of 1.28%.
For `COC(=O)C(C)c1ccc(-c2ccc(O)c(CN3CCOCC3)c2)c(F)c1` (stereo not drawn), the Activity [2] was 2.14 µMequiv/µM, the inhibition [3] was 12.9% and the inhibition [1] was 22.1%. It also gave an inhibition [4] of 14.9% and an inhibition at 0.25 h, 25 µM [5] of 1.19%.
For `COC(=O)C(C)c1ccc(-c2ccc(O)c(CN3CCCC3)c2)c(F)c1` (stereo not drawn), the Activity [2] was 2.13 µMequiv/µM, the inhibition [3] was 15.8% and the inhibition [1] was 28.5%. It also gave an inhibition [4] of 17% and an inhibition at 0.25 h, 25 µM [5] of 1.38%.
`COC(=O)C(C)c1ccc(-c2ccc(O)c(CN3CCCCC3)c2)c(F)c1` (stereo not drawn) gave an Activity [2] of 1.51 µMequiv/µM, an inhibition [3] of 15.5% and an inhibition [1] of 11.2%. For the same molecule, the inhibition [4] was 22.9% and the inhibition at 0.25 h, 25 µM [5] was 1.95%.
`CC(C(=O)O)c1ccc(-c2ccccc2)c(F)c1` (stereo not drawn) [FLURBIPROFEN] showed an Activity [2] of 0.18 µMequiv/µM, an inhibition [3] of 12.8% and an inhibition [1] of 7.56%. For the same molecule, the inhibition [4] was 15.6%, the “inhibition (INH)” value (Butyrylcholinesterase) was “Not Active” and the Papp at 18 h, 100 ug/ml [6] was 1.56 ×10⁻⁶ cm/s. It also gave an inhibition at 2.5 µM (BV-2 [7]) of 11.8%, an inhibition at 10 µM (BV-2 [8]) of 23% and an inhibition at 2.5 µM (BV-2 [9]) of 9.6%. It also gave an inhibition at 10 µM (BV-2 [10]) of 30.3%.
Molecule `CCN(Cc1ccc(N(C)C)cc1)Cc1cc(-c2ccc(C(C)C(=O)OC)cc2F)ccc1O` (stereo not drawn) has an Activity [2] of 4.09 µMequiv/µM, an inhibition [3] of 65% and an inhibition [1] of 38%. The inhibition [4] was 34.1%, the inhibition at 0.25 h, 25 µM [5] was 2.21% and the Activity [11] was 278 nm. The Activity [12] was 270 nm, the Activity [13] was 270 nm and the Activity [14] was 0.1. For the same molecule, the Activity [15] was 0.1, the Activity [16] was “inactive” and the Papp at 18 h, 100 ug/ml [6] was 8.54 ×10⁻⁶ cm/s. For the same molecule, the Activity (BV-2 [17]) was “Non-Toxic”, the Activity (BV-2 [18]) was “Non-Toxic” and the Activity (BV-2 [19]) was “Non-Toxic”. It also gave an inhibition at 0.5 µM (BV-2 [20]) of 28.3%, an inhibition at 2.5 µM (BV-2 [7]) of 32.5% and an inhibition at 10 µM (BV-2 [8]) of 65%. The inhibition at 0.5 µM (BV-2 [21]) was 25.3%, the inhibition at 2.5 µM (BV-2 [9]) was 55.3% and the inhibition at 10 µM (BV-2 [10]) was 68.2%.
Work on `COC(=O)C(C)c1ccc(-c2ccc(O)c(CN(C)Cc3ccccc3OC)c2)c(F)c1` (stereo not drawn) yielded an Activity [2] of 2.12 µMequiv/µM, an inhibition [3] of 60.6% and an inhibition [1] of 38.8%. It also gave an inhibition [4] of 28% and an inhibition at 0.25 h, 25 µM [5] of 3.06%.
Molecule `CCN(Cc1ccccc1)Cc1cc(-c2ccc(C(C)C(=O)OC)cc2F)ccc1O` (stereo not drawn) has an Activity [2] of 2.24 µMequiv/µM, an inhibition [3] of 36.8% and an inhibition [1] of 34.9%. The inhibition [4] was 36.4% and the inhibition at 0.25 h, 25 µM [5] was 4.61%.
With `CCN1CCN(Cc2cc(-c3ccc(C(C)C(=O)OC)cc3F)ccc2O)CC1` (stereo not drawn) the Activity [2] was 2.16 µMequiv/µM, the inhibition [3] was 28.9% and the inhibition [1] was 33.9%. The inhibition [4] was 7.13% and the inhibition at 0.25 h, 25 µM [5] was 4.28%.
In the case of `CCN(Cc1cc(-c2ccc(C(C)C(=O)OC)cc2F)ccc1O)Cc1ccccc1N(C)C` (stereo not drawn), the Activity [2] is reported as 1.57 µMequiv/µM, the inhibition [3] is reported as 60.6% and the inhibition [1] is reported as 42.1%. The inhibition [4] was 45.5% and the inhibition at 0.25 h, 25 µM [5] was 16.3%.
`COC(=O)C(C)c1ccc(-c2ccc(O)c(CN(C)C)c2)c(F)c1` (stereo not drawn) gave an Activity [2] of 2.07 µMequiv/µM, an inhibition [3] of 42.7% and an inhibition [1] of 38.1%. For the same molecule, the inhibition [4] was 18.6%, the inhibition at 0.25 h, 25 µM [5] was 2.56% and the Papp at 18 h, 100 ug/ml [6] was 6.78 ×10⁻⁶ cm/s. For the same molecule, the Activity (BV-2 [17]) was “Non-Toxic”, the Activity (BV-2 [18]) was “Non-Toxic” and the Activity (BV-2 [19]) was “Non-Toxic”. The inhibition at 0.5 µM (BV-2 [20]) was 21.7%, the inhibition at 2.5 µM (BV-2 [7]) was 39.2% and the inhibition at 10 µM (BV-2 [8]) was 61.7%. It also gave an inhibition at 0.5 µM (BV-2 [21]) of 21.8%, an inhibition at 2.5 µM (BV-2 [9]) of 51.2% and an inhibition at 10 µM (BV-2 [10]) of 72.9%.
`COc1cc(/C=C/C(=O)CC(=O)/C=C/c2ccc(O)c(OC)c2)ccc1O` showed an inhibition [1] of 67.2%.
For `CCN(CC)Cc1cc(-c2ccc(C(C)C(=O)OC)cc2F)ccc1O` (stereo not drawn), the Activity [2] was 1.81 µMequiv/µM, the inhibition [3] was 8.3% and the inhibition [1] was 29.7%. The inhibition [4] was 14.3% and the inhibition at 0.25 h, 25 µM [5] was 1.58%.
